Measurements: publication PMC11192564 (Cell metabolism, 2023)
pKd: −log10 of the molar value.

Columns and labels:
[1] = molecular target: T1, Samtor (Mus musculus, UniProt Q8BXK4); assay: microscale thermophoresis; format: binding
T1 sequence (Q8BXK4 1-403): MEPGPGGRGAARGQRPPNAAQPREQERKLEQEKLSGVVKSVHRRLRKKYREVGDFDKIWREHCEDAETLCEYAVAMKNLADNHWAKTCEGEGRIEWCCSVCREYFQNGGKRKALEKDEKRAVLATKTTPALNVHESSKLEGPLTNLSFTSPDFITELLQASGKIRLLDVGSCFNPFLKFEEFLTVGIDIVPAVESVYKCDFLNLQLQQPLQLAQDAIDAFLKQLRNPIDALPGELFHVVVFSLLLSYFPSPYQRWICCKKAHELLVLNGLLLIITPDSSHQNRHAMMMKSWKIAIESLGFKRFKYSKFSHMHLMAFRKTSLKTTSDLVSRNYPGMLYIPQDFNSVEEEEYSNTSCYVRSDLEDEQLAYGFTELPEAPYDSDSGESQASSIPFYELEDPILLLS

[2] = molecular target: T2, SAMTOR (Homo sapiens, UniProt Q1RMZ1); assay: microscale thermophoresis; format: binding
T2 sequence (Q1RMZ1 1-405): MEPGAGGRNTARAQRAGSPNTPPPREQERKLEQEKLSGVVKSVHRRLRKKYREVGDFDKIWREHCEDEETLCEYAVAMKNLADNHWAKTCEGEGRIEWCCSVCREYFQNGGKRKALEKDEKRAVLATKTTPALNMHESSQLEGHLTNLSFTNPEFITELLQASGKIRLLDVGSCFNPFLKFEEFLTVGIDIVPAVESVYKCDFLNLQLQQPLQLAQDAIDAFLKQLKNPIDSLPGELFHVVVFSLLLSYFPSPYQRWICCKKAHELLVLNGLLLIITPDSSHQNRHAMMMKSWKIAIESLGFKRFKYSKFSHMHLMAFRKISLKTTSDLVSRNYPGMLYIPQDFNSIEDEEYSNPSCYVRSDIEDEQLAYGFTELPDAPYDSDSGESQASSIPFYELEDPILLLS

C[S+](CC[C@H](N)C(=O)[O-])C[C@H]1O[C@@H](n2cnc3c(N)ncnc32)[C@H](O)[C@@H]1O (some centres unmarked) [SAM]
pKd [1]: ~5.00 | pKd [2]: ~5.15
